13 compounds from patent US9676714B2, “Sulfonylindole derivatives and method for preparing the same” (Daewoong Pharmaceutical Co., Ltd., priority 2013, dated 2017) can be followed below.

Counter-ions that a name gives are not always drawn.

The target in this assay is T1, proton pump (H+/K+-ATPase) (Sus scrofa, UniProt P19156).
T1 construct: Gastric vesicles were prepared from hog stomach via centrifugal separation; from tissue; host or cells: hog stomach (gastric vesicles, method of Rabon et al. 1988)
T1 sequence (P19156 whole entry): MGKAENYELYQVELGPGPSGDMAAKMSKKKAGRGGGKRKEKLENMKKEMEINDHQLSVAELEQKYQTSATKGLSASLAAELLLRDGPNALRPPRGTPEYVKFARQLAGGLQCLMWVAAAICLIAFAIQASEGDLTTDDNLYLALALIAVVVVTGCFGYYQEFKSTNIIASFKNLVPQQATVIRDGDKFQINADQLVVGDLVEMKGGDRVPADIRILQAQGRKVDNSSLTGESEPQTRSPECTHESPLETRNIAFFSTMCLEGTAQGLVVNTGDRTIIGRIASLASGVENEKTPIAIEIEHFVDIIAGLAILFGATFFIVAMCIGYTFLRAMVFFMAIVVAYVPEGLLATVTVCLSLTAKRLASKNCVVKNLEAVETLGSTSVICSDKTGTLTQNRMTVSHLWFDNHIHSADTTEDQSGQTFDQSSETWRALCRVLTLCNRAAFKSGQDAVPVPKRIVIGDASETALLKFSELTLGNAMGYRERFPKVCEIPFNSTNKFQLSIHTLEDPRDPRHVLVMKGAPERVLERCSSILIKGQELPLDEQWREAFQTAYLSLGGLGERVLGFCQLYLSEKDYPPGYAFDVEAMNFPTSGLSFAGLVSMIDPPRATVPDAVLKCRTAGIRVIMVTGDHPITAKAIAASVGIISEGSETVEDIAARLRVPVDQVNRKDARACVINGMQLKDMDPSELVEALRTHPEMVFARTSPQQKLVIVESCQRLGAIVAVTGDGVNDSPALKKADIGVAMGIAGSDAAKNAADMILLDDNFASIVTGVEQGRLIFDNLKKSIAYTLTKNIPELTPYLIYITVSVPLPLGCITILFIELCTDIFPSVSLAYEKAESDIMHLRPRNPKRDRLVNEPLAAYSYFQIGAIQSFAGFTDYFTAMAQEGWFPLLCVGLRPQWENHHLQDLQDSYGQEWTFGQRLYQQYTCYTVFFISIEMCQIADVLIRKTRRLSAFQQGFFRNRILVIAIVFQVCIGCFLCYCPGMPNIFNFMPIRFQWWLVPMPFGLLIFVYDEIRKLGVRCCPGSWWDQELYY
T1 sequence (P18434 whole entry partner): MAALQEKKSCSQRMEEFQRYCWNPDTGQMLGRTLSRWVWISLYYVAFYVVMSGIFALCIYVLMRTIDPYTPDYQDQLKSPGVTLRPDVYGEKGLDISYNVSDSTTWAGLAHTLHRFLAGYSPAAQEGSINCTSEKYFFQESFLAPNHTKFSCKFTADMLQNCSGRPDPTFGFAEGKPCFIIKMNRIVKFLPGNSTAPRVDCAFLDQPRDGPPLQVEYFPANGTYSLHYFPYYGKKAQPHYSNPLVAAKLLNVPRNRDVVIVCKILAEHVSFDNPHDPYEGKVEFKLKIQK
Put plainly: Measurement of inhibitory effects on proton pump (H+/K+-ATPase) activities. The assay is classed as biochemical. The settings on record: hog gastric vesicles, K+-specific H+/K+-ATPase activity, Tris-HCl buffer pH 7.4, 37° C. for 40 minutes, malachite green Pi readout. A digest of the protocol: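 Hog gastric vesicles in 60 mmol/l Tris-HCl pH 7.4 with 0.5% DMSO were treated with compounds at room temperature; reaction was started with 10 μl of 10 mmol/l ATP stock. Released Pi was read at 570 nm, K+-specific activity taken as the ±K+ difference. IC50 from 4-parameter logistic fit.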
For the compound `CNCc1cn(S(=O)(=O)c2cccnc2)c2cc(Nc3c(F)cc(Cl)cc3F)ccc12` [Example 86, N-(4-chloro-2,6-difluorophenyl)-3-((methylamino)methyl)-1-(pyridin-3-ylsulfonyl)-1H-indol-6-amine hydrochloride], the half-inhibitory concentration (IC50) (commonly the midpoint of a concentration-inhibition curve) was 0.65 µM.

Take `CNCc1cn(S(=O)(=O)c2cccnc2)c2cc(Nc3c(Cl)cc(Cl)cc3Cl)ccc12` [Example 87, 3-((methylamino)methyl)-1-(pyridin-3-ylsulfonyl)-N-(2,4,6-trichlorophenyl)-1H-indol-6-amine hydrochloride]: half-maximal inhibition (IC50) was put at 0.4 µM.

Compound `CNCc1cn(S(=O)(=O)c2cccnc2)c2cc(Nc3c(F)cc(OC)cc3F)ccc12` [Example 88, N-(2,6-difluoro-4-methoxyphenyl)-3-((methylamino)methyl)-1-(pyridin-3-ylsulfonyl)-1H-indol-6-amine hydrochloride] showed an IC50 of 0.43 µM.

Take `CCOc1cc(F)c(Nc2ccc3c(CNC)cn(S(=O)(=O)c4cccnc4)c3c2)c(F)c1` [Example 89, N-(4-ethoxy-2,6-difluorophenyl)-3-((methylamino)methyl)-1-(pyridin-3-ylsulfonyl)-1H-indol-6-amine hydrochloride]: the 50% inhibitory concentration (IC50) is 0.87 µM.

The compound `CNCc1cn(S(=O)(=O)c2cccnc2)c2cc(Nc3c(C)cc(Br)cc3C)ccc12` [Example 90, N-(4-bromo-2,6-dimethylphenyl)-3-((methylamino)methyl)-1-(pyridin-3-ylsulfonyl)-1H-indol-6-amine hydrochloride] returned a half-inhibitory concentration (IC50) of 0.71 µM.

For the compound `CNCc1cn(S(=O)(=O)c2cccnc2)c2cc(Nc3c(F)cc(F)cc3Br)ccc12` [Example 91, N-(2-bromo-4,6-difluorophenyl)-3-((methylamino)methyl)-1-(pyridin-3-ylsulfonyl)-1H-indol-6-amine hydrochloride], the IC50 came to 0.87 µM.

In turn, `CNCc1cn(S(=O)(=O)c2cccnc2)c2cc(Nc3c(F)cc(Br)cc3F)ccc12` [Example 92, N-(4-bromo-2,6-difluorophenyl)-3-((methylamino)methyl)-1-(pyridin-3-ylsulfonyl)-1H-indol-6-amine hydrochloride] showed a half-inhibitory concentration (IC50) of 1.51 µM.

For the compound `CNCc1cn(S(=O)(=O)c2cccnc2)c2cc(Nc3c(F)cc(Br)cc3Br)ccc12` [Example 93, N-(2,4-dibromo-6-fluorophenyl)-3-((methylamino)methyl)-1-(pyridin-3-ylsulfonyl)-1H-indol-6-amine hydrochloride], the half-inhibitory concentration (IC50) turned out to be 2.22 µM.

On to `CNCc1cn(S(=O)(=O)c2cccnc2)c2cc(Nc3c(C)cc(Cl)cc3[N+](=O)[O-])ccc12` [Example 94, N-(4-chloro-2-methyl-6-nitrophenyl)-3-((methylamino)methyl)-1-(pyridin-3-ylsulfonyl)-1H-indol-6-amine hydrochloride], for which it took 0.78 µM to reach half-maximal inhibition (IC50).

`CNCc1cn(S(=O)(=O)c2cccnc2)c2cc(Nc3c(F)c(F)cc(F)c3F)ccc12` [Example 95, 3-((methylamino)methyl)-1-(pyridin-3-ylsulfonyl)-N-(2,3,5,6-tetrafluorophenyl)-1H-indol-6-amine hydrochloride] yielded an IC50 of 0.48 µM.

The compound `CNCc1cn(S(=O)(=O)c2cccnc2)c2cc(Nc3c(F)c(F)c(C(F)(F)F)c(F)c3F)ccc12` [Example 96, 3-((methylamino)methyl)-1-(pyridin-3-ylsulfonyl)-N-(2,3,5,6-tetrafluoro-4-(trifluoromethyl)phenyl)-1H-indol-6-amine hydrochloride] yielded an IC50 of 1.73 µM.

In turn, `CNCc1cn(S(=O)(=O)c2cccnc2)c2cc(Nc3ccc4c(c3)OCCO4)ccc12` [Example 97, N-(2,3-dihydrobenzo[b][1,4]dioxin-6-yl)-3-((methylamino)methyl)-1-(pyridin-3-ylsulfonyl)-1H-indol-6-amine hydrochloride] showed a concentration for half-maximal inhibition (IC50) of 0.67 µM.

As to `CNCc1cn(S(=O)(=O)c2cccnc2)c2cc(Nc3ncccc3C)ccc12` [Example 98, 3-((methylamino)methyl)-N-(3-methylpyridin-2-yl)-1-(pyridin-3-ylsulfonyl)-1H-indol-6-amine hydrochloride], the IC50 was found to be 1.92 µM.
